# Experimental data taken from paper PMC11567856, “A novel peptide‐based tau aggregation inhibitor as a potential therapeutic for Alzheimer's disease and other tauopathies” (Alzheimer's & Dementia, 2024).
# Where a SMILES comes first, the peptide text is derived from it. [ ]: non-standard residue; d: D form.
# What was measured:
# Tau^2N4R = target: T1, Tau^2N4R (Homo sapiens, UniProt P10636); experiment: ThT fluorescence end-point, heparin-induced aggregation of Tau^2N4R; assay type: biochemical
# T1 construct: and full‐length Tau (Tau^2N4R); made in house; host or cells: E. coli BL21
# T1 sequence (P10636 1-441 isoform P10636-8): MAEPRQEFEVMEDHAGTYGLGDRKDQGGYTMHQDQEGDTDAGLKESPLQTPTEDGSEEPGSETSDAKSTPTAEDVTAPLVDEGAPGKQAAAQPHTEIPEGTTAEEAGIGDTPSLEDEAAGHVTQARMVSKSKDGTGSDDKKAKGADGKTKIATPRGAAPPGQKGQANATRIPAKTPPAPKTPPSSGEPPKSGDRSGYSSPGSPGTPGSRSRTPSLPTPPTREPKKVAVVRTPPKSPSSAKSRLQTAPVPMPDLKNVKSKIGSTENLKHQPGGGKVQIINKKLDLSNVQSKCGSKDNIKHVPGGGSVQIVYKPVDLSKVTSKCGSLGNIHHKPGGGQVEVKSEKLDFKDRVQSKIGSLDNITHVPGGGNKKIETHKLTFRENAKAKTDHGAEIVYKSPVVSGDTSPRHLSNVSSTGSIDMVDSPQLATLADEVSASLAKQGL
# Procedure: (§1) Fluorescence was measured (λex = 442 nm, λem = 483 nm), and data were normalized. […] The addition of inhibitor to the growth phase was controlled by adding an equivalent volume of buffer alone.
# (§2) FIGURE 3 Lead peptide RI‐AG03 dose‐response and target specificity. […] (C) Concentration‐dependent inhibition of by Tau^Δ1‐250 by RI‐AG03. […] (E) Concentration‐dependent inhibition of by Tau^2N4R by RI‐AG03. […] (F) log10 scatter graph of Tau^2N4R inhibition by RI‐AG03 employing a curve fitting algorithm to calculate the IC50 at 5 µM. Experiments were conducted in triplicate and error bars were reported as standard deviation. One factor repeated measures ANOVA + Tukey post hoc statistical analysis: p > 0.05, *p ≤ 0.05, **p ≤ 0.01, ***p ≤ 0.001.
# VQIINK = target: T2, VQIINK (Homo sapiens, UniProt P10636); experiment: ThT fluorescence, aggregation of VQIINK peptide; assay type: biochemical; settings: ThT end-point 24 h; 20 µM VQIINK, 20 µM RI‐AG03 (equimolar), 5 µM heparin, pH 7.4; alone or combined with VQIVYK
# T2 construct: ^275VQIINK^280 hexapeptide (motif found in three isoforms)
# Procedure: as §1, §2
# Tau^Δ1‐250 [1] = target: T3, Tau^Δ1‐250 (Homo sapiens, UniProt P10636); experiment: Seeded Tau^Δ1‐250 aggregation with preformed filaments, no heparin; assay type: biochemical; settings: Tau monomers incubated with preformed Tau^Δ1‐250 filaments, no heparin (Figure S10)
# T3 construct: Tau^Δ1‐250 (an aggregate prone truncated version of full‐length Tau); made in house; host or cells: E. coli BL21(DE3)
# T3 sequence (P10636 568-758, stated change not applied): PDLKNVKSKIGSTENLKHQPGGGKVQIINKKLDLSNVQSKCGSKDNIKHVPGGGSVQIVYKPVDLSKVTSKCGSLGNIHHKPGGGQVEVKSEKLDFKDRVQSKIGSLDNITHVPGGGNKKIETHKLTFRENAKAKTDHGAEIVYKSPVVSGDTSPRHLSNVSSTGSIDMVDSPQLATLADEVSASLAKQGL
# Tau^Δ1‐250 [2] = target: T3, Tau^Δ1‐250; experiment: TEM of aggregated Tau^Δ1‐250; assay type: biochemical
# Procedure: Transmission electron microscopy (TEM): Tau was aggregated in similar conditions as above. Samples (10 µL) were loaded onto Formvar/Carbon 300 mesh copper grids for 3 min. The excess sample was wicked away and then negatively stained with 10 µL of filtered 2% phosphotungstic acid, pH 2, for 2 min. Grids were examined using a JEOL JEM‐1010 transmission electron microscope and were visualized and photographed at 50,000× magnification with 80.0 kV.
# FIGURE 4 Lead peptide RI‐AG03 suppresses Tau β‐sheet content and forms of off‐pathway structures. […] 20 µM RI‐AG03 was added after 0, 24, and 72 h, of Tau aggregation (hatched gray bars), or not at all (solid gray bar representing end‐point aggregation of Tau^2N4R at 9 days). Note that Tau^2N4R aggregation plateaued at ∼72 h. […] One factor repeated measures ANOVA + Tukey post hoc statistical analysis: p > 0.05, *p ≤ 0.05, **p ≤ 0.01, ***p ≤ 0.001. (C) Negative stain TEM images using a Joel JEM‐1010 after the aggregation of 20 µM Tau^Δ1‐250 for 24 h, in the absence of RI‐AG03 (left), and in the presence of 20 µM RI‐AG03 (right). (D) The area and diameter of 200 large spherical species formed in the presence of 20 µM RI‐AG03 and recorded by TEM were quantified using iTEM software. […]
# Tau^Δ1‐250 [3] = target: T3, Tau^Δ1‐250; experiment: Congo-red staining of Tau^Δ1‐250 fibrils; assay type: biochemical; settings: Tau^Δ1‐250 incubated in the presence of RI‐AG03 (Figure S11)
# Procedure: Tau filament formation is expected to coincide with a reduction in disordered structure and an increase in β‐sheet content, even as the intermediary on‐pathway oligomers form.[67] […] However, the off‐pathway Tau aggregates that we have previously described have reduced β‐sheet content.[69] To study the β‐sheet content of the large amorphous aggregates formed in the presence of RI‐AG03, samples were analyzed using time‐resolved circular dichroism (CD) to investigate spectra changes indicative of secondary structure in the presence of RI‐AG03 over 5 h (Tau^Δ1‐250 aggregation plateaus at ∼5 h) (Figure 4E). The negative transition at 195 nm is characteristic of random coil structures being present within the Tau^Δ ^1‐250 (blue). […] Although challenging to deconvolute the increase in the negative ellipticity between ∼205 and 235 nm is consistent with the appearance of secondary structural elements including β‐strands. […] This reduction in β‐sheet content is corroborated by congo‐red staining, where the strong apple‐green birefringence observed for the Tau^Δ1‐250 fibrils was eliminated when the Tau^Δ1‐250 was incubated in the presence of RI‐AG03 (Figure S11).
# Elav/hTau^2N4R flies = experiment: Drosophila survival assay, hTau^2N4R pan-neuronal; assay type: in vivo, Drosophila melanogaster; set-up: unit of the concentration uncertain
# Procedure: Drosophila survival assays: Elav‐GAL4 (BDSC_458) female flies were crossed with male UAS‐Tau^2N4R flies or with gender‐matched Oregon‐R (WT) flies. Survival of 10 cohorts of 10 male flies expressing hTau^2N4R pan‐neurally and reared on a diet containing 0.08 or 0.8 µM RI‐AG03 was assessed as previously described.[49] Statistics and reproducibility: Data were collected in ≥triplicate and expressed as mean ± standard error of the mean. […] This test analyzed outcomes related to the treatment effects of peptide inhibitors against Tau aggregation at multiple time points, controlling for individual variability and ensuring that changes observed were significant. For the Drosophila survival data, a Kaplan–Meier survival curve was plotted, and a Log‐rank (Mantel–Cox) test was performed on the data using GraphPad Prism software[49] This test analyzed survival outcomes by comparing survival distribution between groups, without assuming a specific distribution for survival times. AFM data were analyzed by unpaired t‐test with Welch's correction as we made the assumption, from previous similar studies, that the two populations (Tau enriched preps isolated from flies fed or not fed RI‐AG03) had the […].
# in vitro = settings: isolated enzyme trypsin
# Procedure: 15% SDS PAGE gels of AG03 (100 µM) and RI-AG03 (100 µM) treated with and without equimolar
# Trypsin concentration for 24-hours at 37 °C.
# Procedure for HEK‐293 cells: (B) LDH cytotoxicity assay using varying concentrations of RI‐AG03 co‐incubated with HEK‐293 cells. LDH Cytotoxicity (%) denotes lysed cells. Cells were seeded to a 96‐well plate at 10,000 cells/100 µL per well. […] Experiments were conducted in triplicate.
smiles,measurement,setting,value
CC[C@@H](C)[C@@H](NC(=O)[C@@H](CCCCNC(C)=O)NC(=O)[C@@H](Cc1ccc(O)cc1)NC(=O)[C@@H](CCCCN)NC(=O)[C@H]1CCCN1C(=O)CNC(=O)[C@@H](CCCNC(=N)N)NC(=O)[C@@H](CCCNC(=N)N)NC(=O)[C@@H](CCCNC(=N)N)NC(=O)[C@@H](CCCNC(=N)N)NC(=O)[C@@H](CCCNC(=N)N)NC(=O)[C@@H](CCCNC(=N)N)NC(=O)[C@@H](CCCNC(=N)N)NC(=O)[C@@H](CCCNC(=N)N)NC(C)=O)C(=O)N[C@H](CCC(N)=O)C(=O)N[C@@H](C(=O)NCC(=O)N[C@H](CCCNC(=N)N)C(N)=O)C(C)C [RI‐AG03] (Ac-[dR][dR][dR][dR][dR][dR][dR][dR]G[dP][dK][dY][dK](Ac)[dI][dQ][dV]G[dR]-NH2),IC50,Tau^2N4R,5 µM
same,"ThT signal at 9 days, peptide added after 24 h of Tau^2N4R aggregation","Tau^2N4R; 20 µM Tau^2N4R, 20 µM RI‐AG03 added after 24 h, read at 216 h, versus negative control",reduction of ThT signal
same,"ThT signal at 9 days, peptide added after 72 h of Tau^2N4R aggregation","Tau^2N4R; 20 µM Tau^2N4R, 20 µM RI‐AG03 added after 72 h, read at 216 h, versus negative control",no reduction of ThT signal
same,effect on aggregation of VQIINK peptide,VQIINK,dramatically reduced
same,effect on seeded Tau^Δ1‐250 aggregation in the absence of heparin,Tau^Δ1‐250 [1],demonstrated efficacy at inhibiting seeded Tau^Δ1‐250 aggregation
same,mean diameter of large spherical structures formed with the inhibitor,"Tau^Δ1‐250 [2]; 20 µM Tau^Δ1‐250, 20 µM RI‐AG03, 24 h, TEM, 200 species quantified",~36 nm
same,fibrils seen by TEM,"Tau^Δ1‐250 [2]; 20 µM Tau^Δ1‐250 with heparin 24 h, equimolar (20 µM) RI‐AG03, negative stain TEM",these fibrils were not observed
same,apple‐green birefringence of Tau^Δ1‐250 fibrils (congo‐red),Tau^Δ1‐250 [3],eliminated
same,"median survival of hTau^2N4R flies, high dose","Elav/hTau^2N4R flies; high‐dose (0.8 µM) in diet, pan‐neuronal hTau^2N4R male flies, untreated 26 days, n = 100, p < 0.0005",35 days
same,"improvement of median survival of hTau^2N4R flies, high dose","Elav/hTau^2N4R flies; high‐dose (0.8 µM) in diet, versus untreated 26 days, n = 100",35%
same,"median survival of hTau^2N4R flies, low dose","Elav/hTau^2N4R flies; low‐dose (0.08 µM) in diet, pan‐neuronal hTau^2N4R male flies, untreated 26 days, n = 100, p < 0.0005",33 days
same,"improvement of median survival of hTau^2N4R flies, low dose","Elav/hTau^2N4R flies; low‐dose (0.08 µM) in diet, versus untreated 26 days, n = 100",27%
same,concentration at which toxicity begins to increase (LDH cytotoxicity),HEK‐293 cells,40 µM
same,doses found non‐toxic (LDH cytotoxicity),HEK‐293 cells,up to 30 µM
same,"metabolised at 24 h, 100 µM",in vitro,19%
